Reference: patent US20180296586A1, “USE OF NADPH FOR PREPARATION OF A DRUG FOR ANTIPLATELET AGGREGATION” (Chongqing Institute of Bench-to-Bed Bioengineering …, priority 2015, published 2018)

Legend:
[1] = system: ADP-induced platelet aggregation; test: ADP-induced platelet aggregation after preventive administration of NADPH in rats; type: in vivo, rat; details: NADPH 7.5 mg/kg caudal vein 30 min before blood drawing, ADP 20 μM, P<0.01
Procedure: (§1) Normal SD male rats are randomly divided into 2 groups, i.e., a physiological saline group (saline group) and an NADPH (7.5 mg/kg) dosage group in a manner that each group comprises 10 rats. NADPH is injected into the rats through caudal veins 30 min before blood drawing. The rats are subjected to blood drawing from abdominal aorta, 3.8% sodium citrate is used for carrying out anticoagulation treatment according to a drawn blood volume/anticoagulant ratio of 9:1, centrifugation is carried out for 5 min at a rate of 1000 r/min, upper-layer platelet-rich plasma (PRP) is sucked out, remaining blood is subjected to centrifugation for 10 min at a rate of 3000 r/min to prepare platelet-poor plasma (PPP) until the number of platelets is 2*10<8>/mL, and platelet aggregation is detected by adopting a platelet aggregometer Chronolog-590.
The platelet aggregometer is turned on and preheated for 30 min, and light transmittance is adjusted to 100% with PPP as blank control. APRP sample of the physiological saline group (saline group) and a PRP sample of the NADPH (7.5 mg/kg) dosage group are preheated for 5 min at the temperature of 37 DEG C., the preheated PRP samples are put into the aggregometer, then, a certain amount of ADP (20 μM) is added to induce platelet aggregation, graphic changes in 4 min are recorded, and conditions of ADP-induced platelet aggregation caused by NADPH are observed.

[2] = system: thrombin-induced platelet aggregation; test: Thrombin-induced platelet aggregation of rats, in-vitro administration of NADPH; type: cell-based; details: rat PRP, NADPH 30, 60 and 90 μM in vitro, thrombin 2U, 4 min; P<0.05, P<0.01 vs thrombin group
Procedure: as §1, with “20” for “Normal SD male rats are randomly divided into 2 groups, i.e., a physiological saline group (saline group) and an NADPH (7.5 mg/kg) dosage group in a manner that each group comprises 10 rats. NADPH is injected into the rats through caudal veins 30 min before blood drawing. The”
(§2) The platelet aggregometer is turned on and preheated for 30 min, and light transmittance is adjusted to 100 % with PPP as blank control. 0.25 mL of NADPH samples of different concentrations (30 μM, 60 μM and 90 μM) are added into PRP, preheating is conducted for 5 min at the temperature of 37 DEG C., the preheated material is put into the aggregometer, then, a certain amount of thrombin (2U) is added to induce platelet aggregation, graphic changes in 4 min are recorded, and conditions of thrombin-induced platelet aggregation caused by NADPH are observed.

[3] = system: thrombin-induced platelet aggregation; test: Thrombin-induced platelet aggregation after preventive administration of NADPH in rats; type: in vivo, rat; details: NADPH 7.5 mg/kg caudal vein 30 min before blood drawing, thrombin 2U, P<0.01
Procedure: as §1
The platelet aggregometer is turned on and preheated for 30 min, and light transmittance is adjusted to 100% with PPP as blank control. […]

[4] = system: ADP-induced platelet aggregation; test: ADP-induced platelet aggregation of rats, in-vitro administration of NADPH; type: cell-based; details: rat PRP, NADPH 30, 60 and 90 μM in vitro, ADP 20 μM, 4 min; P<0.05, P<0.01 vs ADP group
Procedure: as §1, with “20” for “Normal SD male rats are randomly divided into 2 groups, i.e., a physiological saline group (saline group) and an NADPH (7.5 mg/kg) dosage group in a manner that each group comprises 10 rats. NADPH is injected into the rats through caudal veins 30 min before blood drawing. The”
as §2, with “100%” for “100 %”, “0.25mL” for “0.25 mL”, “ADP (20 μM)” for “thrombin (2U)”, “ADP-induced” for “thrombin-induced”

Compound: NC(=O)C1=CN([C@@H]2O[C@H](COP(=O)(O)OP(=O)(O)OC[C@H]3O[C@@H](n4cnc5c(N)ncnc54)[C@H](OP(=O)(O)O)[C@@H]3O)[C@@H](O)[C@H]2O)C=CC1 [NADPH, Reduced triphosphopyridine nucleotide]
- inhibition of ADP-induced platelet aggregation [1]: remarkably inhibit ADP-induced platelet aggregation
- inhibition of thrombin-induced platelet aggregation [2]: inhibits thrombin-induced platelet aggregation of the rats in a dose-dependent mode
- inhibition of thrombin-induced platelet aggregation [3]: remarkably inhibit thrombin-induced platelet aggregation
- inhibition of ADP-induced platelet aggregation [4]: inhibits ADP-induced platelet aggregation of rats in a dose-dependent mode
